In patent US20260327234A1, “NOVEL COMPOUNDS AS CYP11A1 INHIBITORS AND METHODS OF USE THEREOF” (Shenzhen Ionova Life Science Co., Ltd., priority 2023, published 2026):

Tests used:
[1] = target: T1, testosterone (T) production in NCI-H295R cells (Homo sapiens, UniProt P05108); assay: H295R Steroid Biosynthesis Inhibition Assay - inhibition of testosterone (T) production in NCI-H295R cells; format: cell-based; conditions: 48 h, LC-MS/MS, read-out: Inh. of T IC50
T1 construct: testosterone measured by LC-MS/MS as downstream steroid
T1 sequence (P05108 40-521): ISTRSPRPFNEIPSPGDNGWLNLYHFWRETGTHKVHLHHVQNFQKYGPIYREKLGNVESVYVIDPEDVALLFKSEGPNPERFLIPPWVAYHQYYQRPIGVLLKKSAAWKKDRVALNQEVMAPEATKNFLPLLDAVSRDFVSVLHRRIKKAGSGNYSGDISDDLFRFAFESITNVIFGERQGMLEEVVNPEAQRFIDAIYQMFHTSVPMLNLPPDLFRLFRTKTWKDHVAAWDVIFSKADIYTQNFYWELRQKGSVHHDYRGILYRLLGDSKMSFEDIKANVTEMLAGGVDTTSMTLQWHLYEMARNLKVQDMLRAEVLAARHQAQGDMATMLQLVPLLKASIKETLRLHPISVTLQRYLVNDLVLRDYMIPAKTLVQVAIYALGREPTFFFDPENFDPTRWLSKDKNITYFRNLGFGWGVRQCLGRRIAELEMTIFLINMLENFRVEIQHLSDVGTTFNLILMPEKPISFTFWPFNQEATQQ
Method: (§1) Steroid Biosynthesis Inhibition by test compounds in NCI-H295R cells (ATCC) was studied by measuring the cellular production of pregnenolone (P) catalyzed by CYP11A1 and the downstream steroid, testosterone (T). Cells were cultured in Dulbecco's modified eagle's medium F12 (DMEM/F12) with phenol red (Gibco, Cat. No. 11330032) supplemented with 2% UltroserG (Pall, Cat. No. 15950-017, USA), 1% ITS-Premix and 1% penicillin and streptomycin (Hyclone, Cat. No. SV30010, USA). Prior to the assay, cells were thawed and passed 4 times. The maximal passage number used for the assay was 10. For this assay, DMEM/F12 without phenol red supplemented with 10% charcoal-stripped fetal bovine serum (VivaCell, Cat. No. C3830-0500, USA) were used. In a 96-well plate, 60,000 cells/well were plated (90 μL/well) and incubated for 24 h. Test compounds, diluted in a serial dilution ranging from 1000 nM to 0.15 nM in the assay medium, were added to the plate. After 48 h of incubation, solution from each well were collected and transferred to individual 1.5 mL centrifuge tubes, and then 5 ng/mL deuterated testosterone (D3-testosterone) and 50 ng/mL deuterated pregnenolone (D4-pregnenolone) in 200 μL acetonitrile were added. After vigorously mixing for 5 min, the mixture was centrifuged at 12,700 rpm for 15 min. An aliquot of 250 μL supernatant was collected and dried under N2 stream. After addition of 150 μL Methanol:water (1:1, v/v) to the dried product, 50 μL sample of this solution was injected into the LC-MS/MS system for analysis.
(§2) The half-maximal inhibitory concentration (IC50) for steroid biosynthesis inhibition was determined by curve-fitting with the 4-variable inhibitory dose response equation using GraphPad Prism software.
(§3) Testosterone and pregnenolone were analyzed using Shimadzu LC30AD HPLC system (Shimadzu, Kyoto, Japan) coupled with AB SCIEX Qtrap 5500 triple quadrupole mass spectrometer (AB Sciex, Framingham, MA, USA) via ESI interface in the positive ionization mode. An ACQUITY UPLC BEH Shield RP18 column (1.7 μm, 2.1×50 mm, Milford, MA, USA) maintained at 40° C. was used to separate analytes and IS form the sample matrix.
(§4) The mobile phase was a mixture of 10 mM ammonium acetate in water containing 0.2% formic acid (A) and methanol containing 0.2% formic acid (B) at a flow rate of 0.6 mL/min. The gradient program was set as follows: from 0 min to 0.5 min, 60% B; from 0.5 min to 3.5 min, 90% B; from 3.5 min to 4.5 min, 90% B; from 4.51 min to 5.0 min, 60% B. The injection volume was […].
(§5) The MS/MS parameters were set as follows: ion spray voltage, 5500 V; curtain gas, 35 psi; Gas 1, 55 psi; Gas 2: 55 psi; temperature, […]. The optimized multiple reaction monitoring (MRM) fragmentation transitions and MS parameters of each analyte are summarized in Table 1.

CYP11A1 = target: T2, CYP11A1 (Homo sapiens, UniProt P05108); assay: H295R Steroid Biosynthesis Inhibition Assay - inhibition of pregnenolone (P) production catalyzed by CYP11A1 in NCI-H295R cells; format: cell-based; conditions: 48 h, LC-MS/MS, read-out: Inh. of P IC50
T2 construct: measuring the cellular production of pregnenolone (P) catalyzed by CYP11A1; host or cells: NCI-H295R
T2 sequence (P05108 40-521): T1 sequence (P05108 40-521)
Method: as §1, §2, §3, §4, §5

Compound	IC50 [1] [nM]	IC50 (CYP11A1) [nM]
CN(C)C(=O)[C@H]1CC[C@H](c2cc3oc(CN4Cc5ccccc5C4)cc(=O)c3o2)CC1 [Compound 47]	≤ 40	≤ 40
CS(=O)(=O)N1CCC(COc2ccc(CN3CCc4ccccc4C3)c3cccnc23)CC1 [Compound 8]	≤ 40	≤ 40
O=c1cc(CN2Cc3ccccc3C2)oc2cc([C@H]3CC4CCC(C3)[C@H]4O)oc12 [Compound 33]	41 to 100	40 to 100
CC(Oc1ccc(CN2Cc3ccccc3C2)c2cccnc12)C1CCN(S(C)(=O)=O)CC1 (centres unmarked) [Compound 11]	41 to 100	≤ 40
O=c1cc(CN2Cc3ccccc3C2)oc2cc(C3CCC(O)C3)oc12 (centres unmarked) [Compound 35]	41 to 100	≤ 40
CS(=O)(=O)N1CCC(c2cc3oc(CN4CCc5ccccc5C4)cc(=O)c3o2)CC1 [Compound 21]	≥ 101	≥ 100
CS(=O)(=O)N1CCC(c2cc3oc(CN4Cc5ccc(C(F)(F)F)cc5C4)cc(=O)c3o2)CC1 [Compound 20]	≤ 40	≤ 40
CS(=O)(=O)N1C[C@@H]2[C@H](C1)[C@H]2c1ccc2cc(CN3Cc4ccccc4C3)ccc2n1 [Compound 56, 6-(isoindolin-2-ylmethyl)-2-((1R,5S,6r)-3-(methylsulfonyl)-3-azabicyclo[3.1.0]hexan-6-yl)quinoline]	≤ 40	≤ 40
Cn1ccnc1C(=O)N1CCC(c2cnc3cc(CN4Cc5ccccc5C4)ccc3n2)CC1 [Compound 108]	≥ 101	40 to 100
OC1CCN(c2ccc3cc(CN4Cc5ccccc5C4)ccc3n2)CC1 [Compound 74]	≥ 101	≥ 100
CS(=O)(=O)N1CC2(CC(c3ccc4cc(CN5Cc6ccccc6C5)ccc4n3)C2)C1 [Compound 75]	≤ 40	≤ 40
CS(=O)(=O)N1CCC(c2cc3oc(CN4Cc5ccc(F)cc5C4)cc(=O)c3o2)CC1 [Compound 17]	≤ 40	≤ 40
O=c1cc(CN2Cc3ccccc3C2)oc2cc([C@H]3CC[C@@]4(O)CC4C3)oc12 (some centres unmarked) [Compound 40]	≤ 40	≤ 40
CS(=O)(=O)N1CCC(c2cnc3cc(CN4CCn5cccc5C4)ccc3n2)CC1 [Compound 125]	≥ 101	≥ 100
N#C[C@]1(c2cc3oc(CN4Cc5ccccc5C4)cc(=O)c3o2)CC[C@H](O)CC1 [Compound 43]	41 to 100	≤ 40
O=C(c1ccccc1)N1CCC(c2cnc3cc(CN4Cc5ccccc5C4)ccc3n2)CC1 [Compound 104]	≥ 101	40 to 100
CS(=O)(=O)N1CCC(COc2ccc(CN3Cc4ccccc4C3)c3ccccc23)CC1 [Compound 7]	≤ 40	≤ 40

Compound	IC50 [1] [nM]	IC50 (CYP11A1) [nM]
CS(=O)(=O)N1C[C@@H]2[C@@H](COc3coc(CN4Cc5ccccc5C4)cc3=O)[C@@H]2C1 [Compound 1, 2-(isoindolin-2-ylmethyl)-5-(((1R,5S,6r)-3-(methylsulfonyl)-3-azabicyclo[3.1.0]hexan-6-yl)methoxy)-4H-pyran-4-one]	41 to 100	≤ 40
CS(=O)(=O)N1CCC(c2ccc3cc(CN4Cc5ccccc5C4)ccc3n2)CC1 [Compound 71]	≤ 40	≤ 40
CS(=O)(=O)N1CCC(c2cc(=O)n3cc(CN4Cc5ccccc5C4)ccc3n2)CC1 [Compound 62]	≥ 101	40 to 100
O=c1cc(CN2Cc3ccccc3C2)oc2cc(C3CCC(F)(F)CC3)oc12 [Compound 26]	≥ 101	40 to 100
CN(C)C(=O)N1CCC(c2cnc3cc(CN4Cc5ccccc5C4)ccc3n2)CC1 [Compound 121]	41 to 100	≤ 40
CS(=O)(=O)N1CCC(COc2coc(CN3CCn4cccc4C3)cc2=O)CC1 [Compound 3]	41 to 100	≤ 40
CS(=O)(=O)N1CC2(CC(c3cc4oc(CN5Cc6ccccc6C5)cc(=O)c4o3)C2)C1 [Compound 23]	≤ 40	≤ 40
CS(=O)(=O)N1CCC(c2cnc3cc(CN4Cc5ccccc5C4)ccc3c2)CC1 [Compound 69]	≤ 40	≤ 40
COC(=O)N[C@H]1CC[C@H](c2cc3oc(CN4Cc5ccccc5C4)cc(=O)c3o2)CC1 [Compound 45]	≤ 40	≤ 40
CS(=O)(=O)N1CCC(COc2coc(CN3CCn4c(Cl)ccc4C3)cc2=O)CC1 [Compound 4]	41 to 100	≤ 40
CS(=O)(=O)N1C[C@@H]2[C@H](C1)[C@H]2c1cc2oc(CN3CCn4cccc4C3)cc(=O)c2o1 [Compound 53]	41 to 100	40 to 100
O=S(=O)(c1ccccc1)N1CCC(c2cnc3cc(CN4Cc5ccccc5C4)ccc3n2)CC1 [Compound 98]	≤ 40	≤ 40
CP(C)(=O)c1ccc(-c2cc3oc(CN4Cc5ccccc5C4)cc(=O)c3o2)cc1 [Compound 50]	≥ 101	≥ 100
CC(c1ncc(OCC2CCN(S(C)(=O)=O)CC2)c2ncccc12)N1Cc2ccccc2C1 (centres unmarked) [Compound 12]	≤ 40	≤ 40
CC(C)(C)OC(=O)N1CCC(c2cnc3cc(CN4Cc5ccccc5C4)ccc3n2)CC1 [Compound 113]	41 to 100	40 to 100
O=c1cc(CN2Cc3ccccc3C2)oc2cc(C3CC4(CC(O)C4)C3)oc12 (centres unmarked) [Compound 24]	≤ 40	≤ 40
COC(=O)N1CCC(c2cnc3cc(CN4Cc5ccccc5C4)ccc3n2)CC1 [Compound 110]	≤ 40	≤ 40
